Measured values reported in ChEMBL document CHEMBL5512640, “Discovery of novel itaconimide-based derivatives as potent HDAC inhibitors for the efficient treatment of prostate cancer” (Eur J Med Chem, 2024).
Activity calls are given as the source filed them. The calls are words filed in the database; no cut-off is given here.

How the values were obtained:
Histone deacetylase 4 = Histone deacetylase 4 (Homo sapiens, UniProt P56524); experiment: Inhibition of human HDAC4 incubated for 10 mins followed by fluorogenic substrate addition by fluorescence based analysis
[1] = Toxicity in Balb/c mouse assessed as effect on body weight at 100 mg/kg, po measured upto 40 days in presence of docetaxel; format: organism-based; conditions: in vivo, 960 h, time < 40 day
DU-145 [2] = experiment: Upregulation of histone H3 level in human DU-145 cells incubated for 24 hrs by Western blot analysis; format: functional, cell-based; conditions: dose 0.8-3.2 µM
[3] = Oral bioavailability in Sprague-Dawley rat at 10 mg/kg measured upto 24 hrs by LC-MS/MS analysis; format: ADME, organism-based; conditions: in vivo
DU-145 [4] = experiment: Inhibition of cell migration in human DU-145 cells assessed as suppression of wound closure incubated for 12 hrs by wound healing assay; format: functional, cell-based; conditions: dose 0.2-1.6 µM
[5] = Volume of distribution in Sprague-Dawley rat at 2 mg/kg, iv measured upto 24 hrs by LC-MS/MS analysis; format: ADME, organism-based; conditions: in vivo
DU-145 [6] = experiment: Induction of apoptosis in human DU-145 cells measured after 72 hrs by annexin V-FITC and PI staining based flow cytometry analysis; format: functional, cell-based; conditions: dose 0.4-1.6 µM
[7] = Acute toxicity in Sprague-Dawley rat assessed as effect on heart at 500 to 4500 mg/kg, po measured after 15 days; format: organism-based; conditions: in vivo, 360 h, dose 500-4500 mg/kg, time 15 day
[8] = AUC (0 to infinity) in Sprague-Dawley rat at 10 mg/kg, po measured upto 24 hrs by LC-MS/MS analysis; format: ADME, organism-based; conditions: in vivo
Histone deacetylase 9 = Histone deacetylase 9 (Homo sapiens, UniProt Q9UKV0); experiment: Inhibition of human HDAC9 incubated for 10 mins followed by fluorogenic substrate addition by fluorescence based analysis
[9] = Clearance in Sprague-Dawley rat at 2 mg/kg, iv measured upto 24 hrs by LC-MS/MS analysis; format: ADME, organism-based; conditions: in vivo
[10] = molecular target: Protein deacetylase HDAC6 (Homo sapiens, UniProt Q9UBN7); experiment: Inhibition of human HDAC6 incubated for 10 mins followed by fluorogenic substrate addition by fluorescence based analysis
[11] = Acute toxicity in Sprague-Dawley rat assessed as pathological lesions at 500 to 4500 mg/kg, po measured after 15 days by H and E staining based analysis; format: organism-based; conditions: in vivo, 360 h, dose 500-4500 mg/kg, time 15 day
NCI-H1650 = experiment: Antiproliferative activity against human NCI-H1650 cells incubated for 96 hrs by MTT assay; format: functional, cell-based; conditions: NCI-H1650, 96 h
[12] = Acute toxicity in Sprague-Dawley rat assessed as effect on spleen at 500 to 4500 mg/kg, po measured after 15 days; format: organism-based; conditions: in vivo, 360 h, dose 500-4500 mg/kg, time 15 day
DU-145 [13] = experiment: Antiproliferative activity against human DU-145 cells incubated for 96 hrs by MTT assay; format: functional, cell-based; conditions: DU-145, 96 h
DU-145 [14] = experiment: Induction of apoptosis in human DU-145 cells assessed as apoptotic rate at 0.8 uM measured after 72 hrs by annexin V-FITC and PI staining based flow cytometry analysis (reference value: 3.41%); format: functional
[15] = Half life in Sprague-Dawley rat at 2 mg/kg, iv measured upto 24 hrs by LC-MS/MS analysis; format: ADME, organism-based; conditions: in vivo
[16] = molecular target: Polyamine deacetylase HDAC10 (Homo sapiens, UniProt Q969S8); experiment: Inhibition of human HDAC10 incubated for 10 mins followed by fluorogenic substrate addition by fluorescence based analysis
DU-145 [17] = experiment: Antitumor activity against human DU-145 cells xenografted in Balb/c nude mouse model assessed as tumor growth inhibition at high dose administered as po once daily for 40 days relative to control; format: functional; conditions: time 40 day
[18] = Cmax in Sprague-Dawley rat at 2 mg/kg, iv measured upto 24 hrs by LC-MS/MS analysis; format: ADME, organism-based; conditions: in vivo
MDA-MB-231 = experiment: Antiproliferative activity against human MDA-MB-231 cells incubated for 96 hrs by MTT assay; format: functional, cell-based; conditions: MDA-MB-231, 96 h
DU-145 [19] = experiment: Antitumor activity against human DU-145 cells xenografted in Balb/c nude mouse model assessed as tumor growth inhibition at 200 mg/kg, po administered once daily for 40 days in presence of docetaxel relative to control; format: functional; conditions: DU-145, 960 h, time 40 day, read-out: TGI
DU-145 [20] = experiment: Inhibition of colony formation in human DU-145 cells assessed as suppression of colony formation measured after 2 weeks by crystal violet staining based analysis; format: functional, cell-based; conditions: dose 0.4-3.2 µM
PC-3 = experiment: Antiproliferative activity against human PC-3 cells incubated for 96 hrs by MTT assay; format: functional, cell-based; conditions: PC-3, 96 h
DU-145 [21] = experiment: Downregulation of HDAC6 expression in human DU-145 cells at 0.8 uM incubated for 24 hrs by Western blot analysis; format: functional, cell-based
DU-145 [22] = experiment: Inhibition of colony formation in human DU-145 cells assessed as suppression of colony formation at 3.2 uM measured after […] by crystal violet staining based analysis relative to control; format: functional
Histone deacetylase 5 = Histone deacetylase 5 (Homo sapiens, UniProt Q9UQL6); experiment: Inhibition of human HDAC5 incubated for 10 mins followed by fluorogenic substrate addition by fluorescence based analysis
A549 = experiment: Antiproliferative activity against human A549 cells incubated for 96 hrs by MTT assay; format: functional, cell-based; conditions: A549, 96 h
DU-145 [23] = experiment: animal or person; format: functional, Homo sapiens; conditions: Mus musculus, DU-145, 960 h, route po, time 40 day, read-out: TGI
Description: Antitumor activity against human DU-145 cells xenografted in Balb/c nude mouse model assessed as tumor growth inhibition at 100 mg/kg, po administered once daily for 40 days relative to control

[24] = Acute toxicity in Sprague-Dawley rat assessed as effect on lung at 500 to 4500 mg/kg, po measured after 15 days; format: organism-based; conditions: in vivo, 360 h, dose 500-4500 mg/kg, time 15 day
Histone deacetylase 1 = Histone deacetylase 1 (Homo sapiens, UniProt Q13547); experiment: Inhibition of human HDAC1 incubated for 10 mins followed by fluorogenic substrate addition by fluorescence based analysis
DU-145 [25] = experiment: Antitumor activity against human DU-145 cells xenografted in Balb/c nude mouse model assessed as tumor growth inhibition at 100 mg/kg, po administered once daily for 40 days in presence of docetaxel relative to control; format: functional; conditions: DU-145, 960 h, time 40 day, read-out: TGI
Histone deacetylase 11 = Histone deacetylase 11 (Homo sapiens, UniProt Q96DB2); experiment: Inhibition of human HDAC11 incubated for 10 mins followed by fluorogenic substrate addition by fluorescence based analysis
[26] = Acute toxicity in Sprague-Dawley rat assessed as effect on kidney at 500 to 4500 mg/kg, po measured after 15 days; format: organism-based; conditions: in vivo, 360 h, dose 500-4500 mg/kg, time 15 day
[27] = AUC (0 to infinity) in Sprague-Dawley rat at 2 mg/kg, iv measured upto 24 hrs by LC-MS/MS analysis; format: ADME, organism-based; conditions: in vivo
Histone deacetylase 8 = Histone deacetylase 8 (Homo sapiens, UniProt Q9BY41); experiment: Inhibition of human HDAC8 incubated for 10 mins followed by fluorogenic substrate addition by fluorescence based analysis
[28] = Acute toxicity in Sprague-Dawley rat assessed as effect on liver at 500 to 4500 mg/kg, po measured after 15 days; format: organism-based; conditions: in vivo, 360 h, dose 500-4500 mg/kg, time 15 day
[29] = Acute toxicity in female Sprague-Dawley rat assessed as effect on body weight at 500 to 4500 mg/kg, po measured every 3 days for 15 days; format: organism-based; conditions: in vivo, 360 h, dose 500-4500 mg/kg, time 15 day
HT-29 = experiment: Antiproliferative activity against human HT-29 cells incubated for 96 hrs by MTT assay; format: functional, cell-based; conditions: HT-29, 96 h

Chain of Histone deacetylase 9 (Q9UKV0 whole entry): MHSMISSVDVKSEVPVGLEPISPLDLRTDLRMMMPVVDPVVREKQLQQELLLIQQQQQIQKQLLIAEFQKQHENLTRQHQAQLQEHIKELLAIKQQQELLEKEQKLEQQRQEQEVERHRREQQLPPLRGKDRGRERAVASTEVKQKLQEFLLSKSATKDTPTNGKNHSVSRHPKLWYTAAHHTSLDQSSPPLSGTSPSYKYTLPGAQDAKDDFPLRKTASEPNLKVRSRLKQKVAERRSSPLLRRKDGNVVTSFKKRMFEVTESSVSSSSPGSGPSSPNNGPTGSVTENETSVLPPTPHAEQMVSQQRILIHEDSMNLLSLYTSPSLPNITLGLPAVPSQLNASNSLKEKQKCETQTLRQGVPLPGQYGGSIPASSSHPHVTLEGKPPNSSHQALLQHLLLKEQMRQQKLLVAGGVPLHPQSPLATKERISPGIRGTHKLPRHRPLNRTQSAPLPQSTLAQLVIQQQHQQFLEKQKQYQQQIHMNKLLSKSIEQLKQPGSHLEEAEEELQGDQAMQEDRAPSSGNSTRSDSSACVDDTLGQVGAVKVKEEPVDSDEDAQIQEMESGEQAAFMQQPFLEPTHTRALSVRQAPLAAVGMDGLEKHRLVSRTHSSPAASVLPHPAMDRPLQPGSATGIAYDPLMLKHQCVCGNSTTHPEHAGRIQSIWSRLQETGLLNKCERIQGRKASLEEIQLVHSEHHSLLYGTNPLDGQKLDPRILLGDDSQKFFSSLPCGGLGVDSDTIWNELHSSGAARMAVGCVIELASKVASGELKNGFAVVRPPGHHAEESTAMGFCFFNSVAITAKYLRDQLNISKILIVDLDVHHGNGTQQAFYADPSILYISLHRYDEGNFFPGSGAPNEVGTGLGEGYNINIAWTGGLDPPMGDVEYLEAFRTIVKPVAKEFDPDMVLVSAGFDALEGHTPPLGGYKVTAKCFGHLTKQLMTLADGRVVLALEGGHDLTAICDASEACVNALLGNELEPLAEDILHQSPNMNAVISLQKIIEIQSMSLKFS
Chain of Histone deacetylase 1 (Q13547 whole entry): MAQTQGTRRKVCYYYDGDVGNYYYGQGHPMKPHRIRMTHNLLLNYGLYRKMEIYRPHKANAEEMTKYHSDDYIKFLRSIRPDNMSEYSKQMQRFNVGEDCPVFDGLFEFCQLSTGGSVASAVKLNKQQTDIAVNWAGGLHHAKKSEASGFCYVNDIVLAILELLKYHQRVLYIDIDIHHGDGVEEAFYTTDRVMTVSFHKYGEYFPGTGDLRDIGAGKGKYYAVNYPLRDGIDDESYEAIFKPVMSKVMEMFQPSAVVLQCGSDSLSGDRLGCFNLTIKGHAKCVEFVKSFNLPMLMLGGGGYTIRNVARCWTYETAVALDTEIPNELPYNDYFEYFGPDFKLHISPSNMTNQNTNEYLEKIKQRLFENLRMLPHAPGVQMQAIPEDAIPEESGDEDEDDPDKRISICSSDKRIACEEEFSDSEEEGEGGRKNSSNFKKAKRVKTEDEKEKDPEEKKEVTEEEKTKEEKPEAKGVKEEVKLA
Chain of Protein deacetylase HDAC6 (Q9UBN7 whole entry): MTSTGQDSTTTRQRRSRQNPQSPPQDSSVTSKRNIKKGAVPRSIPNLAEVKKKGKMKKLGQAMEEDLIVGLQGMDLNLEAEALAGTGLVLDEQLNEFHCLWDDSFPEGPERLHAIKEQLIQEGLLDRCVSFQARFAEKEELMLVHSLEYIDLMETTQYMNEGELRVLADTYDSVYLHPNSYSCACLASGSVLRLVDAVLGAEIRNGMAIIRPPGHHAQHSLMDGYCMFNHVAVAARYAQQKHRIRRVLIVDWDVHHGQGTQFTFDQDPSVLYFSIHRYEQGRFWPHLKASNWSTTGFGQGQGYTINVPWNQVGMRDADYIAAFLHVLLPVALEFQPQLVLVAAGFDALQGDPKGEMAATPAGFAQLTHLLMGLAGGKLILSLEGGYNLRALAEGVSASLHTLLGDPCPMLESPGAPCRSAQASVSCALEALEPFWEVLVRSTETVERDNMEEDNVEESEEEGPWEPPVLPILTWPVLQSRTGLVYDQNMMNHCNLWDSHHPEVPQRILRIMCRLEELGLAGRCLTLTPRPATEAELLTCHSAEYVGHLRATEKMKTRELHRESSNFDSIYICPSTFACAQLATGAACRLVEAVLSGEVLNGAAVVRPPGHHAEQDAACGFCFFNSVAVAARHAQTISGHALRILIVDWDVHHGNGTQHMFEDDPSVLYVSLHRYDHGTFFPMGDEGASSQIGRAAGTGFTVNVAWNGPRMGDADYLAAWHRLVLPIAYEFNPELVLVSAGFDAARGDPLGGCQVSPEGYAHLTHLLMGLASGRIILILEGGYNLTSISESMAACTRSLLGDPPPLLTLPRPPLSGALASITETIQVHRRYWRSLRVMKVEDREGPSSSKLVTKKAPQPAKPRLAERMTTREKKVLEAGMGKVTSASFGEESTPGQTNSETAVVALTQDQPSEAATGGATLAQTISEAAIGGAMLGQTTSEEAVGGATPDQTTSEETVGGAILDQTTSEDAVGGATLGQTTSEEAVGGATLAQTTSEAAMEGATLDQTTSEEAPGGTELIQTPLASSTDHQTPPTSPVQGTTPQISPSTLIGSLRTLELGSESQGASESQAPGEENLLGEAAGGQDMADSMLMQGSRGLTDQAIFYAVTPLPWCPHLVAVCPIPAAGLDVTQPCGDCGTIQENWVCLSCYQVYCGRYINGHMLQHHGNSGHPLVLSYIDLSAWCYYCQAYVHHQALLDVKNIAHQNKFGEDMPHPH
Chain of Histone deacetylase 4 (P56524 whole entry): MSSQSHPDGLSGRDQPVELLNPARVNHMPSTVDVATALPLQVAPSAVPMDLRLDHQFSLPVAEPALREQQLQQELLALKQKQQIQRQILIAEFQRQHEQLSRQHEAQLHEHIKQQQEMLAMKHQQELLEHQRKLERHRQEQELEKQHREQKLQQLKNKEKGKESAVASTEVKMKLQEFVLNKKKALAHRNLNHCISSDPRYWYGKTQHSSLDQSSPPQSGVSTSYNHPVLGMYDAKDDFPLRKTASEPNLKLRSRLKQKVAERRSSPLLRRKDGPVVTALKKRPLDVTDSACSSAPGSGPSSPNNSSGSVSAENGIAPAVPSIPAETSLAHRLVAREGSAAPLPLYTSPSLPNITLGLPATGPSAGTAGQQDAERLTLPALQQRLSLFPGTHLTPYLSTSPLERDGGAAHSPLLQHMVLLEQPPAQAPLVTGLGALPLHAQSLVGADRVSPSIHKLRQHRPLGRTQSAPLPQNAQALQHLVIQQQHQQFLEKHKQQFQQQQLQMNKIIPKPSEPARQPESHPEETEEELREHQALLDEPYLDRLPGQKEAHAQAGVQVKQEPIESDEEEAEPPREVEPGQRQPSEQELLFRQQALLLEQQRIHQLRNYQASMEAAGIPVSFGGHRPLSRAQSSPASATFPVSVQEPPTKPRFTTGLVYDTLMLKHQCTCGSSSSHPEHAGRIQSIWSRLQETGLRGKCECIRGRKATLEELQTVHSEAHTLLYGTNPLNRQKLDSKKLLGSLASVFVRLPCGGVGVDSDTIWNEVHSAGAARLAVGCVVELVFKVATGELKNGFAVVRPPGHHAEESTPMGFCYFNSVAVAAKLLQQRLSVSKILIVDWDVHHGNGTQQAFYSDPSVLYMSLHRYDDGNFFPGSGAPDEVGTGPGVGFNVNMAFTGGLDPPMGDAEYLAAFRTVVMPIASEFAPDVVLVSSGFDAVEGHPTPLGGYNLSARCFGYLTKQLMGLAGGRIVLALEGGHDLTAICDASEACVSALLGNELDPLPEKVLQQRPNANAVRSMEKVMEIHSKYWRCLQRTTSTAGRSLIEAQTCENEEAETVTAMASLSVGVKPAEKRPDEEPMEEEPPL
Chain of Histone deacetylase 11 (Q96DB2 whole entry): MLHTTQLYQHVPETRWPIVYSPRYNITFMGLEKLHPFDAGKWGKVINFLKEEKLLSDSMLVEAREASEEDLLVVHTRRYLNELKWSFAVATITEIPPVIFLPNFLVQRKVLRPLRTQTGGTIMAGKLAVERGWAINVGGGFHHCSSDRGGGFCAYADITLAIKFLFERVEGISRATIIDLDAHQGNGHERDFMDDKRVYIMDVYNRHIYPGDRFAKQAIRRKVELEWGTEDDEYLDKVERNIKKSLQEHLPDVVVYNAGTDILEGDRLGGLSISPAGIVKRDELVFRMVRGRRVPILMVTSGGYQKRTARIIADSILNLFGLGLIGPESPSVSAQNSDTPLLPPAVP
Chain of Histone deacetylase 8 (Q9BY41 whole entry): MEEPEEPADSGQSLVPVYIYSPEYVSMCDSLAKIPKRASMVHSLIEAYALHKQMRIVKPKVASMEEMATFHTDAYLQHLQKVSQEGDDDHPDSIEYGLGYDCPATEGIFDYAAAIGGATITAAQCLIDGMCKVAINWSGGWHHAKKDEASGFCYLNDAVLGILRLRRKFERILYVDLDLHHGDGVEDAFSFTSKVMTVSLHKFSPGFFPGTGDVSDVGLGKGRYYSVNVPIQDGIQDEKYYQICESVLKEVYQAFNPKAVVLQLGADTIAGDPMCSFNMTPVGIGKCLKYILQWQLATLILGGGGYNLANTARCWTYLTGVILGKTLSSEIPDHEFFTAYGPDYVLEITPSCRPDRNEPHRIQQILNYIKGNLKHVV

In the case of `COc1ccccc1/C=C1\CC(=O)N(CCCCCCC(=O)NO)C1=O`, the IC50 (Histone deacetylase 4) is reported as > 5000 nM, the Activity [1] is reported as “Non-Toxic” and the Activity (DU-145 [2]) is reported as “Dose-Dependent Effect”. For the same compound, the bioavailability [3] was 46.5%, the inhibition (DU-145 [4]) was “Dose-Dependent Effect” and the Vd [5] was 4.63 L/kg. For the same compound, the Activity (DU-145 [6]) was “Dose-Dependent Effect”, the Activity [7] was “Non-Toxic” and the AUC(0-inf) [8] was 3800 ng·h/mL. The IC50 (Histone deacetylase 9) was > 5000 nM, the clearance [9] was 26.2 mL/min/kg and the IC50 [10] was 3 nM. For the same compound, the Activity [11] was “Non-Toxic”, the IC50 (NCI-H1650) was 3560 nM and the Activity [12] was “Non-Toxic”. The IC50 (DU-145 [13]) was 160 nM, the Activity (DU-145 [14]) was 27.45% and the half-life [15] was 3.12 h. For the same compound, the IC50 [16] was 72 nM, the TGI (DU-145 [17]) was 68% and the Cmax [18] was 852 ng/mL. The IC50 (MDA-MB-231) was 310 nM, the inhibition in vivo at 200 mg/kg (DU-145 [19]) was 81.3% and the inhibition (DU-145 [20]) was “Dose-Dependent Effect”. For the same compound, the IC50 (PC-3) was 720 nM, the Activity (DU-145 [21]) was “Active” and the inhibition at 3.2 µM (DU-145 [22]) was 100%. For the same compound, the IC50 (Histone deacetylase 5) was > 5000 nM, the IC50 (A549) was 1390 nM and the inhibition in vivo at 100 mg/kg (DU-145 [23]) was 50.9%. For the same compound, the Activity [24] was “Non-Toxic”, the IC50 (Histone deacetylase 1) was 12.6 nM and the inhibition in vivo at 100 mg/kg (DU-145 [25]) was 71.4%. The IC50 (Histone deacetylase 11) was > 5000 nM, the Activity [26] was “Non-Toxic” and the AUC(0-inf) [27] was 1630 ng·h/mL. For the same compound, the IC50 (Histone deacetylase 8) was 566 nM, the Activity [28] was “Non-Toxic” and the Activity [29] was “Non-Toxic”. It also gave an IC50 (HT-29) of 1050 nM.
